# Data: ChEMBL document CHEMBL3826929, “Discovery and Preclinical Evaluation of BMS-711939, an Oxybenzylglycine Based PPARα Selective Agonist” (ACS Med Chem Lett, 2016)
# How the values were obtained:
# Syrian golden hamster [1] = experiment: Decrease in plasma LDL cholesterol level in high fat-diet fed syrian golden hamster model of dyslipidemia at 1 mg/kg administered qd through oral gavage measured after 21 days by FPLC analysis relative to control; assay type: functional, Mesocricetus auratus; parameters: scale not given: the % may be the effect or the level left
# Mus musculus [2] = experiment: Increase in ApoA1 level in transgenic mouse expressing human ApoA1 at 3 mg/kg administered qd through oral gavage measured after 10 days relative to vehicle-treated control; assay type: functional
# [3] = target: T1, Peroxisome proliferator-activated receptor alpha (Homo sapiens, UniProt Q07869); experiment: Agonist activity at full length human PPAR-alpha transfected in human HepG2 cells by luciferase reporter gene assay; assay type: cell-based
# T1 sequence (Q07869 whole entry): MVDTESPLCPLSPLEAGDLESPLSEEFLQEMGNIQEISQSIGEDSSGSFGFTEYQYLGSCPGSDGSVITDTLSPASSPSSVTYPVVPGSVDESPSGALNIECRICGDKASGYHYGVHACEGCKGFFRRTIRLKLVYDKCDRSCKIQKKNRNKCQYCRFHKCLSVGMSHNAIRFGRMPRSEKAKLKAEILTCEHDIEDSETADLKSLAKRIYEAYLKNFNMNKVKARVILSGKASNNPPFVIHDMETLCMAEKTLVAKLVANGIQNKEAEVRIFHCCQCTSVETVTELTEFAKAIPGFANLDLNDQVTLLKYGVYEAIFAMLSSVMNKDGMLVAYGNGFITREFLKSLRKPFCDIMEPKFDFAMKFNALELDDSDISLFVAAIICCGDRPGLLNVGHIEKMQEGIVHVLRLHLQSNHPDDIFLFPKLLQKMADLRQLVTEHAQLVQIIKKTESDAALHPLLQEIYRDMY
# Syrian golden hamster [4] = experiment: Decrease in liver cholesterol level in high fat-diet fed syrian golden hamster model of dyslipidemia at 1 mg/kg administered qd through oral gavage measured after 21 days by FPLC analysis relative to control; assay type: functional, Mesocricetus auratus; parameters: scale not given: the % may be the effect or the level left
# [5] = target: T2, Peroxisome proliferator-activated receptor alpha (Homo sapiens) (UniProt Q07869); experiment: Intrinsic activity at PPAR-alpha (unknown origin) relative to fenofibric acid
# T2 sequence (whole entry): T1 sequence (Q07869 whole entry)
# Mus musculus [6] = experiment: Increase in HDL cholesterol level in transgenic mouse expressing human ApoA1 at 50 mg/kg administered qd through oral gavage measured after 10 days relative to vehicle control; assay type: functional
# Syrian golden hamster [7] = experiment: Decrease in liver cholesterol level in high fat-diet fed syrian golden hamster model of dyslipidemia at 10 mg/kg administered qd through oral gavage measured after 21 days by FPLC analysis relative to control; assay type: functional, Mesocricetus auratus; parameters: scale not given: the % may be the effect or the level left
# Syrian golden hamster [8] = experiment: Decrease in plasma triglyceride level in high fat-diet fed syrian golden hamster model of dyslipidemia at 10 mg/kg administered qd through oral gavage measured after 21 days by FPLC analysis relative to control; assay type: functional, Mesocricetus auratus; parameters: scale not given: the % may be the effect or the level left
# [9] = Volume of distribution at steady state in Balb/c mouse at 5 mg/kg, iv; assay type: ADME, organism-based; settings: in vivo, read-out: Vdss
# [10] = Tmax in cynomolgus monkey at 2 mg/kg, po; assay type: ADME, organism-based, Macaca fascicularis; settings: in vivo
# Syrian golden hamster [11] = experiment: Decrease in plasma triglyceride level in high fat-diet fed syrian golden hamster model of dyslipidemia at 1 mg/kg administered qd through oral gavage measured after 21 days by FPLC analysis relative to control; assay type: functional, Mesocricetus auratus; parameters: scale not given: the % may be the effect or the level left
# Cytochrome P450 3A4 = Cytochrome P450 3A4 (Homo sapiens, UniProt P08684); experiment: Inhibition of CYP3A4 (unknown origin); assay type: ADME
# Cytochrome P450 2C19 = Cytochrome P450 2C19 (Homo sapiens, UniProt P33261); experiment: Inhibition of CYP2C19 (unknown origin); assay type: ADME
# [12] = Protein binding in dog plasma; assay type: ADME, cell-free, Canis lupus familiaris; settings: read-out: PPB (converted)
# [13] = Plasma clearance in dog at 1 mg/kg, iv; assay type: ADME, organism-based, Canis lupus familiaris
# [14] = Cmax in Sprague-Dawley rat at 8 mg/kg, po; assay type: ADME, organism-based; parameters: dose 8 mg/kg, route oral; settings: in vivo
# [15] = Agonist activity at hamster PPAR-alpha; parameters: species or system Cricetinae
# [16] = target: Retinoid X receptor (Homo sapiens) (UniProt P28702+P48443+P19793); experiment: Agonist activity at human RXR by transactivation assay relative to standard compound; assay type: protein assay
# [17] = target: T3, Peroxisome proliferator-activated receptor gamma (Homo sapiens, UniProt P37231); experiment: Binding affinity to human GST-tagged PPAR-gamma LBD expressed in Escherichia coli BL21 after 30 mins in presence of fluorescein ligand FLA-A by fluorescence polarization assay
# T3 sequence (P37231 whole entry): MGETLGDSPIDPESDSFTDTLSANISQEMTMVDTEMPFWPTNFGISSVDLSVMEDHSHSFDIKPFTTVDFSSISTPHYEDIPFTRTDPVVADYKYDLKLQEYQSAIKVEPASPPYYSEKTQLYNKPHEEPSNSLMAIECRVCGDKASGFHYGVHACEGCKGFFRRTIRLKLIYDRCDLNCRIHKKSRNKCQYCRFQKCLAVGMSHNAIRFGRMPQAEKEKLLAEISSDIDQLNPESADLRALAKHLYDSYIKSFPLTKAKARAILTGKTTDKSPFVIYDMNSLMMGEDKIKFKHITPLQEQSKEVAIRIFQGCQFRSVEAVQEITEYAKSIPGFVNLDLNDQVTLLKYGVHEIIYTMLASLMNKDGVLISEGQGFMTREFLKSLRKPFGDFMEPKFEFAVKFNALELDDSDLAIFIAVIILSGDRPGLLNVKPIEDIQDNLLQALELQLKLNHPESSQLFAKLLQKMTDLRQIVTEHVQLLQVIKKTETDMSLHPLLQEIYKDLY
# [18] = AUC (0 to 8 hrs) in Balb/c mouse at 10 mg/kg, po; assay type: ADME, organism-based; parameters: dose 10 mg/kg, time < 8 hr, route oral; settings: in vivo
# [19] = Aqueous solubility of the compound at pH 7.2; assay type: physicochemical; settings: buffer
# hERG (KCNH2) = hERG (KCNH2) (Homo sapiens, UniProt Q12809); experiment: Inhibition of human ERG at 30 uM by patch-clamp method
# [20] = target: T3, Peroxisome proliferator-activated receptor gamma; experiment: Agonist activity at full length human PPAR-gamma transfected in human HepG2 cells by luciferase reporter gene assay; assay type: cell-based
# Syrian golden hamster [21] = experiment: Decrease in liver cholesterol level in high fat-diet fed syrian golden hamster model of dyslipidemia at 3 mg/kg administered qd through oral gavage measured after 21 days by FPLC analysis relative to control; assay type: functional, Mesocricetus auratus; parameters: scale not given: the % may be the effect or the level left
# Glucocorticoid receptor = Glucocorticoid receptor (Homo sapiens, UniProt P04150); experiment: Agonist activity at human GR by transactivation assay
# [22] = AUC (0 to 8 hrs) in cynomolgus monkey at 2 mg/kg, po; assay type: ADME, organism-based, Macaca fascicularis; parameters: time < 8 hr, dose 2 mg/kg, route oral; settings: in vivo
# Mus musculus [23] = experiment: Increase in HDL cholesterol level in transgenic mouse expressing human ApoA1 at 10 mg/kg administered qd through oral gavage measured after 10 days relative to vehicle control; assay type: functional
# [24] = AUC (0 to 8 hrs) in Sprague-Dawley rat at 4 mg/kg, iv; assay type: ADME, organism-based; parameters: time < 8 hr, dose 4 mg/kg, route intravenous; settings: in vivo
# [25] = AUC (0 to 8 hrs) in cynomolgus monkey at 1 mg/kg, iv; assay type: ADME, organism-based, Macaca fascicularis; parameters: time < 8 hr, dose 1 mg/kg, route intravenous; settings: in vivo
# Retinoid X receptor = Retinoid X receptor (Homo sapiens, UniProt P28702+P48443+P19793); experiment: Agonist activity at human RXR by transactivation assay; assay type: protein assay
# [26] = AUC (0 to 8 hrs) in dog at 1 mg/kg, iv; assay type: ADME, organism-based, Canis lupus familiaris; parameters: dose 1 mg/kg, time < 8 hr, route intravenous; settings: in vivo
# Salmonella typhimurium = experiment: Genotoxicity in Salmonella typhimurium TA100 up to 5000 ug by Ames test; assay type: toxicity, organism-based; settings: salmonella enterica subsp. enterica serovar typhimurium
# Cytochrome P450 2C9 = Cytochrome P450 2C9 (Homo sapiens, UniProt P11712); experiment: Inhibition of CYP2C9 (unknown origin); assay type: ADME
# Sequence of Cytochrome P450 2C9 (P11712 whole entry): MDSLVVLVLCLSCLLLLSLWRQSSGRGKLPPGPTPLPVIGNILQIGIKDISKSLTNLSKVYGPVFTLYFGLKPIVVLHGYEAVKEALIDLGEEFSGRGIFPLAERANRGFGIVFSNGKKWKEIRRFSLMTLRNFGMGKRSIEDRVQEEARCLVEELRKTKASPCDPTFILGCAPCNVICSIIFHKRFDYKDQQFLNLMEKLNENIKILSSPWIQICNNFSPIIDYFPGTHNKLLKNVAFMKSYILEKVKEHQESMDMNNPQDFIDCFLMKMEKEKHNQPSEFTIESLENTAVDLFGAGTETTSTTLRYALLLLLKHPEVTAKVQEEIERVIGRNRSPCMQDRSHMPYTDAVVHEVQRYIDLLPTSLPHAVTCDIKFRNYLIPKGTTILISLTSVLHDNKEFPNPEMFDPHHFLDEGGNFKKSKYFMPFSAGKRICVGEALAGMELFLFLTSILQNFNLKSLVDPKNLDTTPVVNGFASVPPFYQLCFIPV
# Sequence of Cytochrome P450 2C19 (P33261 whole entry): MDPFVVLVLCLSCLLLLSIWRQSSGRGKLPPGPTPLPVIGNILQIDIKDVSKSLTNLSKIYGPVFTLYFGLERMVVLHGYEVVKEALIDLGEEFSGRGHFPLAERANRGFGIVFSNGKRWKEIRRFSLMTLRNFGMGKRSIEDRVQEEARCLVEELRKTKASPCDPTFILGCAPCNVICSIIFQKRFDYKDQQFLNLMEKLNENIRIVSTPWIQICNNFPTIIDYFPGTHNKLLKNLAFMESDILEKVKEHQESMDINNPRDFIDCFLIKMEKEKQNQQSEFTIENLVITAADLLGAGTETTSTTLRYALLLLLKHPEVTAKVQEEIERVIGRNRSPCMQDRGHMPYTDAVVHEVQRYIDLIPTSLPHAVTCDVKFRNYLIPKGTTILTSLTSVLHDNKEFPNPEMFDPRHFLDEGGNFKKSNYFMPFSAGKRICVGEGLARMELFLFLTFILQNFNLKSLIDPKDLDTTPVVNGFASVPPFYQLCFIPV
# Sequence of hERG (KCNH2) (Q12809 whole entry): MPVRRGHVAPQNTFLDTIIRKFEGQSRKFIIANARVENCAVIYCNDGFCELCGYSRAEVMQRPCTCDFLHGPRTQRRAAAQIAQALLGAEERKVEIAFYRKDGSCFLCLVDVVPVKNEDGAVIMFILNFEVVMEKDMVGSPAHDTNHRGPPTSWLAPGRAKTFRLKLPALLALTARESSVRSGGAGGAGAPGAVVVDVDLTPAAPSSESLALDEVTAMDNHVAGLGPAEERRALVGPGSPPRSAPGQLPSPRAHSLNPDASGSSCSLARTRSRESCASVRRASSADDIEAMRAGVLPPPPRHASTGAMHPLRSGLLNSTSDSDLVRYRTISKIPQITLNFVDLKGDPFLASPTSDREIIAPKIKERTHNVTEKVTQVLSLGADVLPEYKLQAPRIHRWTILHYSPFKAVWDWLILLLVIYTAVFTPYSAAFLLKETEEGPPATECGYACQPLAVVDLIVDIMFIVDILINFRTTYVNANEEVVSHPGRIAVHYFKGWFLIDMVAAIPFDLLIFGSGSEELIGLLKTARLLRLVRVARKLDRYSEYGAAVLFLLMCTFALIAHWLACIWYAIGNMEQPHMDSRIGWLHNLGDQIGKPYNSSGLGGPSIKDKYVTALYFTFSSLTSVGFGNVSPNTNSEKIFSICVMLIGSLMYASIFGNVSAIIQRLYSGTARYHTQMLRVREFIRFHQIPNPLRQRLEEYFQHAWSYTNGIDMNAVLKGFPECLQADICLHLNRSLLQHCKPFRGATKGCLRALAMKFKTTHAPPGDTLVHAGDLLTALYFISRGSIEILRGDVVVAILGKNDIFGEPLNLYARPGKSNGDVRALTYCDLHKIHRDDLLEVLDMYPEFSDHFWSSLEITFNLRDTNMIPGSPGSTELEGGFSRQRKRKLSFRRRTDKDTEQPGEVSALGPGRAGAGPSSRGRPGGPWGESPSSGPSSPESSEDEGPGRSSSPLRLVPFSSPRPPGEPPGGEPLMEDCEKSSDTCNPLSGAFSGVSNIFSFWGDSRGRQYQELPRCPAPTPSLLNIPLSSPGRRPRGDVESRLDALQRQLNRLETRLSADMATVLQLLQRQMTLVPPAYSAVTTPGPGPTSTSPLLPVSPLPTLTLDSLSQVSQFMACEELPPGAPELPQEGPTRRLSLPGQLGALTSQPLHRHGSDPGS
# Sequence of Cytochrome P450 3A4 (P08684 whole entry): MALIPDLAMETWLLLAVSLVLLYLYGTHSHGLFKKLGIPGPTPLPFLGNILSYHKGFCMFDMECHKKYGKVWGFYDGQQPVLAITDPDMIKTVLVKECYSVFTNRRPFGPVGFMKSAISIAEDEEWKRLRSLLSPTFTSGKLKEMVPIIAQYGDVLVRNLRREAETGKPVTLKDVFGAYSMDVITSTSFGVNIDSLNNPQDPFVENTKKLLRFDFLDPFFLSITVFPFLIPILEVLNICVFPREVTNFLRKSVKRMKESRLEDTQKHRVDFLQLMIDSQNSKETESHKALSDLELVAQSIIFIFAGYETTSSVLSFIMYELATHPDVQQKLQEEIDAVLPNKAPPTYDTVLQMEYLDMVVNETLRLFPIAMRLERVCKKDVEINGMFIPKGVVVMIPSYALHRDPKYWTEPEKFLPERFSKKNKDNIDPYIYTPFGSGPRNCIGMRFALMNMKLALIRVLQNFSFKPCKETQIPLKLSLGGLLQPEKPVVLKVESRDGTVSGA
# Sequence of Retinoid X receptor (Homo sapiens) (P19793 whole entry, looked up, the tested form may be a part): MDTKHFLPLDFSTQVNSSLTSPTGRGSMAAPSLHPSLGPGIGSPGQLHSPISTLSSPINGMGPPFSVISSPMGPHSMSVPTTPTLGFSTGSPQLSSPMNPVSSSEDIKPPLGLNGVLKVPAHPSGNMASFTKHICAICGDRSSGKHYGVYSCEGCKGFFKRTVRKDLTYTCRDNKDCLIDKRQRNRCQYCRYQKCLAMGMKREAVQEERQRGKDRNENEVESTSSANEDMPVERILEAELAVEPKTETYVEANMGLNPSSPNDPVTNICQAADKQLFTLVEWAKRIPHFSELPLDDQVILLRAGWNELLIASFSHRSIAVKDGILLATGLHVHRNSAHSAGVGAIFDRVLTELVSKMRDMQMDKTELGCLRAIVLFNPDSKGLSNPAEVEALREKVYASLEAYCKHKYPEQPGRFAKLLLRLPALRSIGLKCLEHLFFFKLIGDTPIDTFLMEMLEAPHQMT
# Sequence of Retinoid X receptor (Homo sapiens) (P28702 whole entry, looked up, the tested form may be a part): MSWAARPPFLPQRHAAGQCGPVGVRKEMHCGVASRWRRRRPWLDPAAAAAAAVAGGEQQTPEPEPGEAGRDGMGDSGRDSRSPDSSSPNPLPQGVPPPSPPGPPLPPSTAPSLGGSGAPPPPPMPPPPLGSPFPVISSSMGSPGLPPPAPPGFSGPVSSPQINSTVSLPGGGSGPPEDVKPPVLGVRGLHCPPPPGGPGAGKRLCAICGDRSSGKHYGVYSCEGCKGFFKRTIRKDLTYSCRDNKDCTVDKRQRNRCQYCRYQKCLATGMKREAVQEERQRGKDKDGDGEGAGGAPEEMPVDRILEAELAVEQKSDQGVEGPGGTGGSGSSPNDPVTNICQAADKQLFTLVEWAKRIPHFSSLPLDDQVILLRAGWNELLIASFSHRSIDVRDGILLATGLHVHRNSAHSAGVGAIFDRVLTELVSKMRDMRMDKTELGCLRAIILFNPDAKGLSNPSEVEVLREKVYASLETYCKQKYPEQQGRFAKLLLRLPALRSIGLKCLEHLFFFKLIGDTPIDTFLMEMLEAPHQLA
# Sequence of Retinoid X receptor (Homo sapiens) (P48443 whole entry, looked up, the tested form may be a part): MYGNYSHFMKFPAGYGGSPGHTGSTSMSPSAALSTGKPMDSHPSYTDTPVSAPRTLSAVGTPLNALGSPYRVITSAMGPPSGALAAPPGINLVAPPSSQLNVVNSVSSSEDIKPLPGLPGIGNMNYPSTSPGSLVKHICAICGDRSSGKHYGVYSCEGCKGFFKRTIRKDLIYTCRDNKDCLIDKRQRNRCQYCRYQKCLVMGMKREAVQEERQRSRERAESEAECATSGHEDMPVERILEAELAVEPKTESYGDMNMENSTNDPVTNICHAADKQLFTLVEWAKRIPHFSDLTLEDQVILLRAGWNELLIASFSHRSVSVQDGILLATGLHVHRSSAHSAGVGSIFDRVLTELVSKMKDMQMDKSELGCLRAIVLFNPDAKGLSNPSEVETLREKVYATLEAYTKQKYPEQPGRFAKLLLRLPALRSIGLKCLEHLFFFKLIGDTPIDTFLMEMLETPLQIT
# Sequence of Glucocorticoid receptor (P04150 whole entry): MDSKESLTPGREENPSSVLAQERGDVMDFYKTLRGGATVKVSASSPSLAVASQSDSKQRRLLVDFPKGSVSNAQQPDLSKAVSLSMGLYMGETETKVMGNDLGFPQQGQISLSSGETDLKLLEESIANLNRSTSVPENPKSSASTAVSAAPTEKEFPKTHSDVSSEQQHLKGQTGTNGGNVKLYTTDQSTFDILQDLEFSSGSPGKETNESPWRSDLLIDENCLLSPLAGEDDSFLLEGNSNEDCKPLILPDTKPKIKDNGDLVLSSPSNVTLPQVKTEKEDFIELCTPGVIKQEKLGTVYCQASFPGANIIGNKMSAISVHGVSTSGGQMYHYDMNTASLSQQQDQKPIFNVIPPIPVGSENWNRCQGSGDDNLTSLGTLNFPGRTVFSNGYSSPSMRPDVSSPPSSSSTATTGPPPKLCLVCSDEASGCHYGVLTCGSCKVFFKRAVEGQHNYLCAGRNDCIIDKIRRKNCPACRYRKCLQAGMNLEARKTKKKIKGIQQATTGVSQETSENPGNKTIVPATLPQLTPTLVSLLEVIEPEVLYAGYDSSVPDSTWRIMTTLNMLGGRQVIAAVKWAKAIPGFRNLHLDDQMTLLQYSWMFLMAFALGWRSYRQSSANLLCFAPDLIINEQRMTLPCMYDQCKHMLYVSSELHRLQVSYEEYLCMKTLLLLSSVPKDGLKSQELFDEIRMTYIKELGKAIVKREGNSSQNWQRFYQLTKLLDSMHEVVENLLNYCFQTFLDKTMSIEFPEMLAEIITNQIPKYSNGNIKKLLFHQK
compound,measurement,setting,value
COC(=O)N(CC(=O)O)Cc1cc(OCc2nc(-c3ccc(Cl)cc3)oc2C)ccc1F,Activity,Syrian golden hamster [1],24%
same,Activity,Mus musculus [2],96%
same,EC50,[3],0.005 µM
same,Activity,Syrian golden hamster [4],13%
same,Intrinsic activity,[5],> 50%
same,Activity,Mus musculus [6],109%
same,Activity,Syrian golden hamster [7],67.5%
same,Activity,Syrian golden hamster [8],85%
same,Vd,[9],0.6 L/kg
same,Tmax,[10],54 min
same,Activity,Syrian golden hamster [11],50%
same,IC50,Cytochrome P450 3A4,> 40 µM
same,IC50,Cytochrome P450 2C19,> 40 µM
same,fraction unbound,[12],0.005
same,clearance,[13],10.7 mL/min/kg
same,Cmax,[14],14.9 µM
same,EC50,[15],0.178 µM
same,Efficacy,[16],< 15%
same,IC50,[17],> 98.4 µM
same,AUC(0-t) at 8 h,[18],17 µM·h
same,solubility,[19],367 µg/mL
same,inhibition at 30 µM,hERG (KCNH2),4%
same,EC50,[20],> 1.61 µM
same,Activity,Syrian golden hamster [21],56.8%
same,EC50,Glucocorticoid receptor,> 25 µM
same,AUC(0-t) at 8 h,[22],8.5 µM·h
same,Activity,Mus musculus [23],74%
same,AUC(0-t) at 8 h,[24],9.4 µM·h
same,AUC(0-t) at 8 h,[25],7.5 µM·h
same,EC50,Retinoid X receptor,> 25 µM
same,AUC(0-t) at 8 h,[26],3.5 µM·h
same,Activity,Salmonella typhimurium,Non-toxic
same,IC50,Cytochrome P450 2C9,> 40 µM
